Like-named read-outs stand apart in the source and are kept apart here.
Assays:
Type in all cases: in vivo, Wistar-strain male rats
[1] = tested on: Carrageenin-induced paw edema; assay: Carrageenin-induced paw edema experiment using rats; settings: Rattus norvegicus, 3 h; for inhibition in vivo at 0.5 mg/kg / inhibition in vivo at 0.2 mg/kg / ED50: oral; for inhibition in vivo at 0.5 mg/kg / inhibition in vivo at 0.2 mg/kg: three hours after induction, vs control; for ED50: edema inhibition three hours after induction
Method: Pharmacological Experiment 1 (Carrageenin-induced paw edema experiment using rats)
There were used groups each consisting of seven Wistar-strain male rats each weighing about 150 g as test animals (subjects). One hour later than said administration, 0.1 ml of 1%λ-carrageenin was hypodermically injected to the paw of right hind leg of each of the test animals to induce the reaction. Thereafter, each test animal so injected was measured for its paw volume with the lapse of time.
The experimental results were indicated in terms of edema inhibition rates and effective doses (ED50) found by comparing the edema rate of each test rat with that of each rat of the control group (to which no test compounds were orally administered) three hours after having induced the reaction.

adjuvant arthritis = assay: Adjuvant arthritis experiment using rats; settings: oral; for ED50: Rattus norvegicus, 168 h, once a day for 7 days
Method: Pharmacological Experiment 4 (Adjuvant arthritis experiment using rats)
0.6 mg/0.1 ml of Mycobacterium butyricum suspended in liquid paraffin were subcutaneously administered to the root of the tall of each of Wistar-strain male rats each weighing about 200 g (for the compound of Example 2 and comparative compound 1) or 240 g (for the compound of Example 24 and comparative compounds 4 and 5). […] The test compounds were orally administered once a day for 7 days to the selected rats in the predetermined doses, respectively, as indicated in the following Table 7. The inhibitory effect on the adjuvant arthritis was investigated referring, as a guide to the investigation, to the inhibition effect on swelling of the hind paws of each of the tested rats. In each of the tested rats, the inhibition rate was calculated by comparing the swelling volume ratio of the tested rat determined by the following formula with that of each rat of the control group (to which no test compounds were orally administered).
Swelling volume ratio = {(paw volume measured
26 days (*a) after the subcutaneous administration) -
(original or normal paw volume)}/{(paw volume
measured 19 days (*b) after the subcutaneous
administration) - (original or normal paw volume)} × 100
*a: 24 days later, for the compound of Example 24 and comparative
*b: 17 days later, for the compound of Example 24 and comparative

[2] = tested on: threshold of pain of the paws; assay: Randall-Selitto method using rats (yeast-induced inflammatory pain); settings: oral; for ED50: Rattus norvegicus, analgesic effect; for Inhibition rate: area under the curve of pain threshold vs control
Method: Pharmacological Experiment 2 (Randall-Selitto method using rats as subjects)
There were used groups each consisting of seven Wistar-strain male rats each weighing about 140 g. The rats were hypodermically injected with 0.1 ml of 20% yeast suspension at the paw of their right hind leg to induce inflammatory edema, and the threshold of pain of the paws was measured with the lapse of time in accordance with the Randall-Selitto method. Three hours after the reaction had been induced, the dose of the test compounds was orally administered to each rat as shown in the following Table 5.
In Table 5, the results were expressed in terms of inhibition rates and effective amounts (ED50) for the tested groups with respect to those of the control group (to which the compound was not orally administered) after the area under the curve had been measured subsequently to the administration.

[3] = Gastric mucous membrane trouble experiment using rats; settings: rat, in vivo
Method: (§1) Pharmacological Experiment 3 (Gastric mucous membrane trouble experiment using rats)
(§2) There were used groups each consisting of eight Wistar-strain male rats each weighing about 160 g as test animals (subjects). The test compounds were orally administered to the test animals in the predetermined doses, respectively, as indicated in the following Table 6 after their fasting for 18 hours. Thirty five hours later than said administration, the rats so administered were dissected to remove therefrom the stomachs each of which was then fixed, cut along the greater curvature thereof and visually observed to find whether ulcers were formed therein. Further, 50% gastric ulcer-inducing doses (UD50) were determined.

Gastric mucous membrane = assay: as above; settings: oral, 3.0 mg/kg; fasted 18 hours; groups of eight rats
Method: as §1, §2

[4] = read-out: Inhibition rate (edema inhibition rate)
[5] = 1.0 mg/kg once a day for 7 days

SMILES	inhibition in vivo at 0.5 mg/kg [1, 4]	inhibition in vivo at 0.2 mg/kg [1, 4]	Inhibition rate ([2]; 1.0 mg/kg)	other results
CC(C(=O)O)c1ccc(C[C@@H]2CCCC[C@H]2O)cc1 (relative stereo) [compound 5, 2[4-(trans-2-hydroxycyclohexane-1-ylmethyl)phenyl]propionic acid, reference compound]	33.7%			Inhibition rate (swelling of hind paws) (adjuvant arthritis; 3.0 mg/kg once a day for 7 days): 42.7%; Inhibition rate (swelling of hind paws) (adjuvant arthritis; 10.0 mg/kg once a day for 7 days): 56.4%
CC(C(=O)O)c1ccc(C[C@@H]2CCC[C@H]2O)cc1 (relative stereo) [compound 6, 2[4-(trans-2-hydroxycyclopentane-1-ylmethyl)phenyl]propionic acid, reference compound]	38.5%	22.5%		
CC(C(=O)O)c1ccc(CC2CCCCC2=O)c(Cl)c1 (stereo not drawn) [Example 2, 2-[3-chloro-4-(2-oxocyclohexane-1-ylmethyl)phenyl]propionic acid]	49.5%	21.8%	75.1%	ED50 [1]: 0.6 mg/kg; ED50 [2]: 0.3 mg/kg; Inhibition rate ([2]; 0.3 mg/kg): 54.3%; TD50 at 35 h ([3]; po): 5.6 mg/kg; Ulcer formation (incidence) (Gastric mucous membrane): 2/8; ED50 (adjuvant arthritis): 0.5 mg/kg; Inhibition rate (swelling of hind paws) (adjuvant arthritis; [5]): 62.1%
CC(C(=O)O)c1ccc(CC2CCCC2)c(Cl)c1 (stereo not drawn) [compound 3, 2(3-chloro-4-cyclopentylmethylphenyl)propionic acid, reference compound]	10.2%		18.4%	
CC(C(=O)O)c1ccc(CC2CCCC2=O)c(Cl)c1 (stereo not drawn) [Example 3, 2-[3-chloro-4-(2-oxocyclopentane-1-ylmethyl)phenyl]propionic acid]	48.5%	20.2%	69.3%	Inhibition rate ([2]; 0.3 mg/kg): 44.7%
CC(C(=O)O)c1ccc(C[C@H]2CCCC[C@@H]2O)c(Cl)c1 (stereo partly drawn) [Example 28, 2-[3-chloro-4-(trans-(1R, 2S)-2-hydroxycyclohexane-1-yl-methyl)phenyl]propionic acid]	54.8%	38.3%	80.9%	Inhibition rate ([2]; 0.3 mg/kg): 62.5%
CC(C(=O)O)c1ccc(C[C@@H]2CCCC[C@H]2O)c(Cl)c1 (relative stereo) [Example 24, 2-[3-chloro-4-(trans-2-hydroxycyclohexane-1-ylmethyl)phenyl]propionic acid]	47.1%	33.4%		Inhibition rate (swelling of hind paws) (adjuvant arthritis; 0.1 mg/kg once a day for 7 days): 34.2%; Inhibition rate (swelling of hind paws) (adjuvant arthritis; 0.3 mg/kg once a day for 7 days): 49.9%; Inhibition rate (swelling of hind paws) (adjuvant arthritis; [5]): 65.9%
CC(C(=O)O)c1ccc(C[C@H]2CCCC[C@@H]2O)c(F)c1 (relative stereo) [Example 31]	54%			
CC(C(=O)O)c1ccc(C[C@H]2CCC[C@@H]2O)c(Cl)c1 (stereo partly drawn) [Example 44, 2-[3-chloro-4-(trans-(1R, 2S)-2-hydroxycyclopentane-1-ylmethyl)phenyl]propionic acid]	65.5%	42.2%		
CC(C(=O)O)c1ccc(CC2CCCC2=O)c(F)c1 (stereo not drawn) [Example 6]	52.2%			Ulcer formation (incidence) (Gastric mucous membrane): 1/8
CC(C(=O)O)c1ccc(CC2CCCCC2=O)cc1 (stereo not drawn) [compound 2, 2[4-(2-oxocyclohexane-1-ylmethyl)phenyl]propionic acid, reference compound]	27.1%		44.3%	
CC(C(=O)O)c1ccc(CC2CCCCC2=O)c(F)c1 (stereo not drawn) [Example 10]	50.2%			
CC(C(=O)O)c1ccc(C[C@@H]2CCC[C@H]2O)c(Cl)c1 (relative stereo) [Example 40, 2-[3-chloro-4-(trans-2-hydroxycyclopentane-1-ylmethyl)phenyl] propionic acid]	56.3%	34.5%		
CC(C(=O)O)c1ccc(C[C@H]2CCCC[C@H]2O)c(F)c1 (relative stereo) [Example 32]	37.9%			
CC(C(=O)O)c1ccc(C[C@H]2CCC[C@H]2O)c(F)c1 (relative stereo) [Example 47]	45.6%			
CC(C(=O)O)c1ccc(CC2CCCC2=O)cc1 (stereo not drawn) [compound 1, Loxoprofen, reference compound]	23.9%		49.7%	ED50 [1]: 1.5 mg/kg; ED50 [2]: 1.5 mg/kg; TD50 at 35 h ([3]; oral, fasted 18 hours, read-out: UD50 (50% gastric ulcer-inducing dose)): 4.7 mg/kg; Ulcer formation (incidence) (Gastric mucous membrane): 4/8; ED50 (adjuvant arthritis): 8.1 mg/kg; Inhibition rate (swelling of hind paws) (adjuvant arthritis; [5]): 1.3%
COc1ccc2c(c1)c(CC(=O)O)c(C)n2C(=O)c1ccc(Cl)cc1 [compound 4, Indomethacin, reference compound]				inhibition in vivo at 5 mg/kg ([1]; po, read-out: Inhibition rate (edema inhibition rate)): 51.3%; Inhibition rate ([2]; 5.0 mg/kg): 76.3%; Inhibition rate (swelling of hind paws) (adjuvant arthritis; [5]): 58.7%
CC(C(=O)O)c1ccc(C[C@H]2CCC[C@@H]2O)c(F)c1 (relative stereo) [Example 46]	60.5%			
